Here are results for two molecules from PMC5242325 (Antiviral therapy, 2015).

Molecules are shown by their SMILES.

The conditions of series [1]: female genital tract compared to BP; cited from earlier work.
For series [2] the following is noted: administration of a moderate fat meal; cited from earlier work.
The nature of series [3]: Raltegravir pharmacokinetics in blood plasma. The note with it: for AUC(0-t): AUC 0-12h; for AUC(0-t) / concentration at 12 h / Cmax: BP, median (IQR).
A short description of series [4]: Raltegravir pharmacokinetics in cervicovaginal fluid. The note with it: CVF, median (IQR); for AUC(0-t): AUC 0-12h.
Where [5] appears, read: female, human, in vivo, 400 mg, first dose, HIV-infected postmenopausal women (n=5).
Setting [6] is: female, human, in vivo, 400 mg, steady state, HIV-infected postmenopausal women (n=5).
Where [7] appears, read: female, human, in vivo, 400 mg, steady state, HIV-infected premenopausal women (n=6).
The mark [8] stands for this setting: female, human, in vivo, 400 mg, C12, first dose, HIV-infected postmenopausal women (n=5).
Setting [9] is: female, human, in vivo, 400 mg, C12, steady state, HIV-infected postmenopausal women (n=5).
Where [10] appears, read: female, human, in vivo, 400 mg, C12, steady state, HIV-infected premenopausal women (n=6).
[11] abbreviates: female, human, in vivo, 400 mg, Cmax, first dose, HIV-infected postmenopausal women (n=5).
Setting [12] is: female, human, in vivo, 400 mg, Cmax, steady state, HIV-infected premenopausal women (n=6).

On to `C[C@@H]1CCO[C@H]2Cn3cc(C(=O)NCc4ccc(F)cc4F)c(=O)c(O)c3C(=O)N12` [dolutegravir], for which the “CVF:BP AUC ratio” value in series [1] is 0.07.

For `Cc1nnc(C(=O)NC(C)(C)c2nc(C(=O)NCc3ccc(F)cc3)c(O)c(=O)n2C)o1` [raltegravir], the “increase in AUC” value in series [2] is reported as 13%. Moreover, the AUC(0-t) in series [3] (setting [5]) stood at 4240 ng·h/mL; in series [3] (female, human, in vivo, 400 mg, first dose, HIV-negative premenopausal women (n=7)) it was 3100 ng·h/mL; in series [3] (setting [6]), 6180 ng·h/mL; in series [3] (setting [7]), 5760 ng·h/mL; in series [3] (female, human, in vivo, 400 mg, steady state, HIV-negative premenopausal women (n=7)), 8440 ng·h/mL; in series [4] (setting [5]), 13800 ng·h/mL. In addition, the AUC(0-t) in series [4] (female, human, in vivo, 400 mg, first dose, HIV-negative premenopausal women (n=7), BLD imputed 0.1 ng/ml) was 1720 ng·h/mL; in series [4] (setting [6]) it was 9570 ng·h/mL; in series [4] (setting [7]), 11500 ng·h/mL; in series [4] (female, human, in vivo, 400 mg, steady state, HIV-negative premenopausal women (n=7), BLD imputed 0.1 ng/ml), 3160 ng·h/mL. For the same molecule, the concentration at 12 h in series [3] (setting [8]) stood at 222 ng/mL; in series [3] (female, human, in vivo, 400 mg, C12, first dose, HIV-negative premenopausal women (n=7)) it was 54 ng/mL; in series [3] (setting [9]), 310 ng/mL; in series [3] (setting [10]) it was 23 ng/mL; in series [3] (female, human, in vivo, 400 mg, C12, steady state, HIV-negative premenopausal women (n=7)), 303 ng/mL; in series [4] (setting [8]) it was 1290 ng/mL. Also, the concentration at 12 h in series [4] (setting [9]) came out at 958 ng/mL; in series [4] (setting [10]) it was 447 ng/mL. Also, the Cmax in series [3] (setting [11]) is 1660 ng/mL; in series [3] (female, human, in vivo, 400 mg, Cmax, first dose, HIV-negative premenopausal women (n=7)) it was 790 ng/mL; in series [3] (female, human, in vivo, 400 mg, Cmax, steady state, HIV-infected postmenopausal women (n=5)), 1170 ng/mL; in series [3] (setting [12]), 1980 ng/mL; in series [3] (steady state, HIV-negative premenopausal women (n=7)), 1874 (587-2166) ng/mL; in series [4] (setting [11]) it was 4780 ng/mL. Besides, the Cmax in series [4] (setting [12]) is 1920 ng/mL; in series [4] (steady state, HIV-infected postmenopausal women (n=5)), 2841 (326-4430) ng/mL. Besides, the “time after dosing by which all subjects had detectable concentrations in BP” value in series [3] (first dose, HIV-negative premenopausal and HIV-infected postmenopausal women) is not above 1 h.
